The nature of data set [1]: Stability of NTI164 oil formulation at room temperature (UPLC).
The subject of data set [2] is TNF-ALPHA. Nature of the data set: TNF-alpha in microglial culture media, psylocibin combination (Example 9). In kind it is cell-based. The settings on record: PBS control 1.00, positive activation I&I 10.67. The procedure:
Microglia media harvested following treatment initiation was centrifuged briefly to remove particulates (300 g for 10 min). The level of TNFα in the microglial culture media was measured using a Bio-Plex 200 with a 96-well magnetic plate assay according to the manufacturer's instructions (Bio-Rad). The samples were run in duplicate that were averaged for analysis. At least three samples per group were run.

Where [3] appears, read: NTI164 oil, room temperature, Day 14.

Like-named read-outs stand apart in the source and are kept apart here.

With `CCCCCc1cc(O)c(C/C=C(\C)CCC=C(C)C)c(O)c1` [Cannabigerol (CBG), Cannabigerol], in data set [1] (NTI164 oil, room temperature), the “Cannabinoid content of NTI164, Day 0” value is on record as 5.21 mg/mL; the “Cannabinoid content of NTI164, Day 2” value was determined as 5.23 mg/mL; the “Cannabinoid content of NTI164, Day 7” value came out at 5.14 mg/mL; the “Cannabinoid content of NTI164, Day 28” value is listed as 5.1 mg/mL. Besides, in data set [1] (NTI164 oil, room temperature), the “Cannabinoid content of NTI164, Week 5” value is listed as 5.30 mg/mL; the “Cannabinoid content of NTI164, Week 6” value is on record as 5.28 mg/mL; the “Cannabinoid content of NTI164, Week 32” value amounted to 5.12 mg/mL. For the same molecule, the “Cannabinoid content of NTI164, Day 14” value in data set [1] (setting [3]) was 5.1 mg/mL.
On to `CN(C)CCc1c[nH]c2cccc(OP(=O)(O)O)c12` [SubP (Psylocibin), Psylocibin], for which the TNF-alpha assessment result came to 4.87 in data set [2] (1 ug/ml) and 9.17 in data set [2] (5 ug/ml).
Regarding `CCCCCc1cc2c(c(O)c1C(=O)O)[C@@H]1C=C(C)CC[C@H]1C(C)(C)O2` [(Tetrahydrocannabinolic acid) (D9-THCA), Delta-9-tetrahydrocannabinolic acid], the “Cannabinoid content of NTI164, Day 14” value in data set [1] was found to be 0.69 mg/mL. Besides, in data set [1] (NTI164 oil, room temperature), the “Cannabinoid content of NTI164, Day 0” value is 0.66 mg/mL; the “Cannabinoid content of NTI164, Day 2” value was 0.72 mg/mL; the “Cannabinoid content of NTI164, Day 7” value is listed as 0.64 mg/mL; the “Cannabinoid content of NTI164, Day 28” value was determined as 0.36 mg/mL. In addition, in data set [1] (NTI164 oil, room temperature), the “Cannabinoid content of NTI164, Week 5” value stood at 0.79 mg/mL; the “Cannabinoid content of NTI164, Week 6” value was 0.73 mg/mL; the “Cannabinoid content of NTI164, Week 32” value is under 0.1 mg/mL.
As for `CCCCCc1cc(O)c(C/C=C(\C)CCC=C(C)C)c(O)c1C(=O)O` [Cannabigerol Acid(CBG-A), Cannabigerolic acid], in data set [1] (NTI164 oil, room temperature), the “Cannabinoid content of NTI164, Day 0” value was determined as 1.07 mg/mL; the “Cannabinoid content of NTI164, Day 2” value is recorded as 1.18 mg/mL; the “Cannabinoid content of NTI164, Day 7” value amounted to 1.20 mg/mL; the “Cannabinoid content of NTI164, Day 28” value is 0.81 mg/mL. Moreover, in data set [1] (NTI164 oil, room temperature), the “Cannabinoid content of NTI164, Week 5” value was 1.08 mg/mL; the “Cannabinoid content of NTI164, Week 6” value is given as 1.00 mg/mL; the “Cannabinoid content of NTI164, Week 32” value is recorded as 1.05 mg/mL. In addition, the “Cannabinoid content of NTI164, Day 14” value in data set [1] (setting [3]) was 1.19 mg/mL.
Consider `C=C(C)[C@@H]1CCC(C)=C[C@H]1c1c(O)cc(CCC)cc1O` [Cannabidivarin (CBDV), Cannabidivarin], for which, in data set [1] (NTI164 oil, room temperature), the “Cannabinoid content of NTI164, Day 0” value is under 0.1 mg/mL; the “Cannabinoid content of NTI164, Day 2” value is listed as under 0.1 mg/mL; the “Cannabinoid content of NTI164, Day 7” value is under 0.1 mg/mL; the “Cannabinoid content of NTI164, Day 28” value is under 0.1 mg/mL. Moreover, in data set [1] (NTI164 oil, room temperature), the “Cannabinoid content of NTI164, Week 5” value is on record as 0.10 mg/mL; the “Cannabinoid content of NTI164, Week 6” value is recorded as under 0.1 mg/mL; the “Cannabinoid content of NTI164, Week 32” value is 0.13 mg/mL. Further, the “Cannabinoid content of NTI164, Day 14” value in data set [1] (setting [3]) was under 0.1 mg/mL.
With `CCCCCc1cc(O)c2c(c1)OC(C)(CCC=C(C)C)C=C2` (stereo not shown) [Cannabichrome(CBC), Cannabichromene], in data set [1] (NTI164 oil, room temperature), the “Cannabinoid content of NTI164, Day 0” value is reported as 1.23 mg/mL; the “Cannabinoid content of NTI164, Day 2” value came to 1.19 mg/mL; the “Cannabinoid content of NTI164, Day 7” value is 1.34 mg/mL; the “Cannabinoid content of NTI164, Day 28” value is reported as 1.27 mg/mL. In data set [1] (NTI164 oil, room temperature), the “Cannabinoid content of NTI164, Week 5” value stood at 1.20 mg/mL; the “Cannabinoid content of NTI164, Week 6” value was 1.15 mg/mL; the “Cannabinoid content of NTI164, Week 32” value came to 1.22 mg/mL. In addition, the “Cannabinoid content of NTI164, Day 14” value in data set [1] (setting [3]) turned out to be 1.22 mg/mL.
Take `CCCCCc1cc(O)c2c(c1)OC(C)(C)c1ccc(C)cc1-2` [Cannabinol (CBN), Cannabinol]: the “Cannabinoid content of NTI164, Day 14” value in data set [1] came to 2.33 mg/mL. In addition, in data set [1] (NTI164 oil, room temperature), the “Cannabinoid content of NTI164, Day 0” value is on record as 2.32 mg/mL; the “Cannabinoid content of NTI164, Day 2” value was 2.54 mg/mL; the “Cannabinoid content of NTI164, Day 7” value is 2.48 mg/mL; the “Cannabinoid content of NTI164, Day 28” value was found to be 2.56 mg/mL. In addition, in data set [1] (NTI164 oil, room temperature), the “Cannabinoid content of NTI164, Week 5” value is 2.22 mg/mL; the “Cannabinoid content of NTI164, Week 6” value is 2.27 mg/mL; the “Cannabinoid content of NTI164, Week 32” value amounted to 2.21 mg/mL.
Take `C=C(C)[C@@H]1CCC(C)=C[C@H]1c1c(O)cc(CCCCC)c(C(=O)O)c1O` [Cannabidiol acid (CBD-A), Cannabidiol acid]: in data set [1] (NTI164 oil, room temperature), the “Cannabinoid content of NTI164, Day 0” value was found to be 48.16 mg/mL; the “Cannabinoid content of NTI164, Day 2” value is 48.19 mg/mL; the “Cannabinoid content of NTI164, Day 7” value is 48.62 mg/mL; the “Cannabinoid content of NTI164, Day 28” value was 47.12 mg/mL. In data set [1] (NTI164 oil, room temperature), the “Cannabinoid content of NTI164, Week 5” value turned out to be 48.35 mg/mL; the “Cannabinoid content of NTI164, Week 6” value is listed as 47.56 mg/mL; the “Cannabinoid content of NTI164, Week 32” value came to 47.01 mg/mL. Also, the “Cannabinoid content of NTI164, Day 14” value in data set [1] (setting [3]) is listed as 48.09 mg/mL.
Take `CCCCCc1cc(O)c2c(c1)OC(C)(C)C1CC=C(C)CC21` (stereo not shown) [DELTA-8-THC (D8-THC), Delta-8-tetrahydrocannabinol]: the “Cannabinoid content of NTI164, Day 14” value in data set [1] is given as under 0.1 mg/mL. For the same molecule, in data set [1] (NTI164 oil, room temperature), the “Cannabinoid content of NTI164, Day 0” value was under 0.1 mg/mL; the “Cannabinoid content of NTI164, Day 2” value is recorded as under 0.1 mg/mL; the “Cannabinoid content of NTI164, Day 7” value is recorded as under 0.1 mg/mL; the “Cannabinoid content of NTI164, Day 28” value is under 0.1 mg/mL. In data set [1] (NTI164 oil, room temperature), the “Cannabinoid content of NTI164, Week 5” value was under 0.1 mg/mL; the “Cannabinoid content of NTI164, Week 6” value is under 0.1 mg/mL; the “Cannabinoid content of NTI164, Week 32” value is recorded as under 0.1 mg/mL.
For `CCCc1cc(O)c2c(c1)OC(C)(C)[C@@H]1CCC(C)=C[C@@H]21` [Tetrahydrocannabivarin (THCV), Tetrahydrocannabivarin], in data set [1], the “Cannabinoid content of NTI164, Day 14” value is recorded as under 0.1 mg/mL. Also, in data set [1] (NTI164 oil, room temperature), the “Cannabinoid content of NTI164, Day 0” value was under 0.1 mg/mL; the “Cannabinoid content of NTI164, Day 2” value is under 0.1 mg/mL; the “Cannabinoid content of NTI164, Day 7” value is reported as under 0.1 mg/mL; the “Cannabinoid content of NTI164, Day 28” value is recorded as under 0.1 mg/mL. For the same molecule, in data set [1] (NTI164 oil, room temperature), the “Cannabinoid content of NTI164, Week 5” value is on record as under 0.1 mg/mL; the “Cannabinoid content of NTI164, Week 6” value was under 0.1 mg/mL; the “Cannabinoid content of NTI164, Week 32” value is recorded as under 0.1 mg/mL.
Regarding `CCCCCc1cc(O)c2c(c1)OC(C)(C)[C@@H]1CCC(C)=C[C@@H]21` [Tetrahydrocannabinol (D9-THC), Delta-9-tetrahydrocannabinol], in data set [1] (NTI164 oil, room temperature), the “Cannabinoid content of NTI164, Day 0” value is under 0.1 mg/mL; the “Cannabinoid content of NTI164, Day 2” value was under 0.1 mg/mL; the “Cannabinoid content of NTI164, Day 7” value was under 0.1 mg/mL; the “Cannabinoid content of NTI164, Day 28” value is given as under 0.1 mg/mL. Besides, in data set [1] (NTI164 oil, room temperature), the “Cannabinoid content of NTI164, Week 5” value turned out to be 0.14 mg/mL; the “Cannabinoid content of NTI164, Week 6” value is on record as under 0.1 mg/mL; the “Cannabinoid content of NTI164, Week 32” value is on record as 0.11 mg/mL. Further, in data set [1] (setting [3]), the “Cannabinoid content of NTI164, Day 14” value is under 0.1 mg/mL.
